# Experimental data: ChEMBL document CHEMBL2157990 (ACS Med Chem Lett, 2012)
# pEC50, pIC50: −log10 of the molar value. The source made the active and inactive calls. The rule behind the calls is not given here.
# Experiments:
# [1] = Activation of chymotrypsin-like activity of human 20S proteasome using suc-LLVY-AMC as substrate by fluorescence assay; conditions: for pEC50: read-out: EC50
# [2] = Inhibition of PA28 activated chymotrypsin-like activity of human 20S proteasome using suc-LLVY-AMC as substrate by fluorescence assay; conditions: for pIC50: read-out: IC50
# Homo sapiens [3] = species: Homo sapiens; assay: Reversal of amyloid beta-induced inhibition of chymotrypsin-like activity of PA28-activated human 20S proteasome using suc-LLVY-AMC as substrate at 14 uM by fluorescence assay; parameters: scale not given: the % may be the effect or the level left
# [4] = Activation of trypsin-like activity of human 20S proteasome using Bz-VGR-AMC as substrate by fluorescence assay
# Homo sapiens [5] = species: Homo sapiens; assay: Activation of chymotrypsin-like activity of human 20S proteasome using suc-LLVY-AMC as substrate at 18 uM by fluorescence assay in presence of 1.1 to 30 ug/mL
# [6] = Activation of caspase-like activity of human 20S proteasome using (Z)-LLE-bNA as substrate by fluorescence assay
# Homo sapiens [7] = species: Homo sapiens; assay: Activation of chymotrypsin-like activity of human 20S proteasome using suc-LLVY-AMC as substrate at 18 uM by fluorescence assay
# Homo sapiens [8] = species: Homo sapiens; assay: Reversal of amyloid beta-induced inhibition of chymotrypsin-like activity of PA28-activated human 20S proteasome using suc-LLVY-AMC as substrate by fluorescence assay
# Homo sapiens [9] = species: Homo sapiens; assay: Activation of chymotrypsin-like activity of human 20S proteasome using suc-LLVY-AMC as substrate by fluorescence assay relative to control
SMILES,EC50 [1],pIC50 [2],pEC50 [1],IC50 [2],other results
COC(=O)CC[C@@H](C)[C@H]1CC[C@H]2[C@@H]3CC[C@@H]4C[C@@H](NC(=O)CCCCCC(=O)O)CC[C@]4(C)[C@H]3CC[C@]12C,Not Active,5.59,,,
COC(=O)CC[C@@H](C)[C@H]1CC[C@H]2[C@@H]3CC[C@@H]4C[C@@H](N)CC[C@]4(C)[C@H]3CC[C@]12C,Not Active,5.24,,,
C[C@H](CCC(=O)O)[C@H]1CC[C@H]2[C@@H]3CC[C@@H]4C[C@H](O)CC[C@]4(C)[C@H]3CC[C@]12C [LITHOCHOLIC ACID],Not Active,< 5.00,,,
COC(=O)CC[C@@H](C)[C@H]1CC[C@H]2[C@@H]3CC[C@@H]4C[C@@H](OC(=O)CCCCCC(=O)O)CC[C@]4(C)[C@H]3CC[C@]12C,Not Active,5.51,,,
C[C@H](CCC(=O)O)[C@H]1CC[C@H]2[C@@H]3CC[C@@H]4C[C@H](OC(=O)CCCCCC(=O)O)CC[C@]4(C)[C@H]3CC[C@]12C,,,< 4.82,Not Active,
CNC(=O)CC[C@@H](C)[C@H]1CC[C@H]2[C@@H]3CC[C@@H]4C[C@H](OC(=O)CCCCCC(=O)O)CC[C@]4(C)[C@H]3CC[C@]12C,Not Active,,,Not Active,
COC(=O)CC[C@@H](C)[C@H]1CC[C@H]2[C@@H]3CC[C@@H]4C[C@H](OC(=O)CCCCCC(=O)O)CC[C@]4(C)[C@H]3CC[C@]12C,,,5.11,Not Active,Activity (Homo sapiens [3]): 50%; pEC50 [4]: 5.07; Activity (Homo sapiens [5]): Active; pEC50 [6]: 4.96; Activity (Homo sapiens [7]): Active; Activity (Homo sapiens [8]): Dose-dependent effect
C/C=C1/[C@H](O[C@@H]2O[C@H](CO)[C@@H](O)[C@H](O)[C@H]2O)OC=C(C(=O)OC)[C@H]1CC(=O)OCCc1ccc(O)c(O)c1 [OLEUROPEIN],Not Active,,,Not Active,
COC(=O)CC[C@@H](C)[C@H]1CC[C@H]2[C@@H]3CC[C@@H]4C[C@H](N)CC[C@]4(C)[C@H]3CC[C@]12C,,,5.17,Not Active,
CCOC(=O)CC[C@@H](C)[C@H]1CC[C@H]2[C@@H]3CC[C@@H]4C[C@H](OC(=O)CCCCCC(=O)O)CC[C@]4(C)[C@H]3CC[C@]12C,,,< 4.82,Not Active,
COC(=O)CC[C@@H](C)[C@H]1CC[C@H]2[C@@H]3CC[C@@H]4C[C@H](NC(=O)CCCCCC(=O)O)CC[C@]4(C)[C@H]3CC[C@]12C,,,5.37,Not Active,fold change (FC) (Homo sapiens [9]): 2
